Source: ChEMBL document CHEMBL2163233, “3-Oxoisoindoline-1-carboxamides: potent, state-dependent blockers of voltage-gated sodium channel Na(V)1.7 with efficacy in rat pain models” (J Med Chem, 2012)
≈ marks a conversion by molar mass, not a printed value.

Assays:
in vitro [1] = settings: rat, microsomes, CLH
in vitro [2] = settings: human, microsomes, CLH
cells = settings: Homo sapiens, HEK293
in vitro [3] = settings: Sprague-Dawley, rat, plasma
in vivo [4] = settings: Sprague-Dawley, rat, po, 10 umol/kg
in vivo [5] = settings: Sprague-Dawley, rat, po, 10 umol/kg; remark: listed apart in the source
in vivo [6] = settings: Sprague-Dawley, rat, iv, 3 umol/kg
in vivo [7] = settings: Sprague-Dawley, rat, po, 10 umol/kg; remark: listed apart in the source
in vitro [8] = settings: human, Caco-2
in vivo [9] = settings: Sprague-Dawley, rat, iv, 3 umol/kg; remark: listed apart in the source
in vivo [10] = settings: Sprague-Dawley, rat, po, 10 umol/kg; remark: listed apart in the source
in vivo [11] = settings: Sprague-Dawley, rat, po, 10 umol/kg; remark: listed apart in the source
in vivo [12] = settings: Sprague-Dawley, rat, iv, 3 umol/kg; remark: listed apart in the source
in vivo [13] = settings: Sprague-Dawley, rat, iv, 3 umol/kg; remark: listed apart in the source

Structure (SMILES) | solubility at 4 h (physchem) [µM] | microsomal CLint (in vitro [1]) [µL/min/mg] | microsomal CLint (in vitro [2]) [µL/min/mg] | further results
CC(C)(CN1C(=O)c2ccccc2C1C(=O)NCc1ccc(OC(F)(F)F)cc1)c1ccccn1 (centres undefined) | 6 (≈ 2.9 µg/mL) | < 10 | 40 | –
O=C(NCc1ccc(OC(F)(F)F)cc1)C1c2ccccc2C(=O)N1CCN1CCOCC1 (centres undefined) | 200 (≈ 92.7 µg/mL) | < 10 | 49 | –
O=C(NCc1ccc(OC(F)(F)F)cc1)C1c2ccccc2C(=O)N1C1CC(F)(F)C1 (centres undefined) | 4 (≈ 1.76 µg/mL) | < 10 | 15 | –
O=C(NCc1ccc(C(F)(F)F)cc1)C1c2ccccc2C(=O)N1CCc1ccccn1 (centres undefined) | 7 (≈ 3.08 µg/mL) | 58 | 180 | –
O=C(NCc1ccc(OC(F)(F)F)cc1)C1c2ccccc2C(=O)N1CCOc1ccccn1 (centres undefined) | < 1 | 39 | 190 | –
CCCCNc1ccc(C(=O)OCCN(C)C)cc1 [TETRACAINE] | – | – | – | IC50 (cells): 33 µM
CN(C)CCC=C1c2ccccc2CCc2ccccc21 [AMITRIPTYLINE] | – | – | – | IC50 (cells): 12 µM
O=C(NCc1cccc(OC(F)(F)F)c1)C1c2ccccc2C(=O)N1CCc1ncc(F)cn1 (centres undefined) | 61 (≈ 28.9 µg/mL) | 28 | 180 | fraction unbound (in vitro [3]): 0.18; Tmax (in vivo [4]): 24 min; AUC (in vivo [5]): 0.4 µM·h; half-life (in vivo [6]): 24 min; Cmax (in vivo [7]): 90 nM; Papp (in vitro [8]): 50 ×10⁻⁶ cm/s; clearance (in vivo [9]): 29 mL/min/kg; bioavailability (in vivo [10]): 6%; half-life (in vivo [11]): 486 min; Vd (in vivo [12]): 0.7 L/kg; AUC (in vivo [13]): 2.1 µM·h
COc1ccc(CNC(=O)C2c3ccccc3C(=O)N2CCc2ccccn2)cc1 (centres undefined) | 360 (≈ 145 µg/mL) | – | – | –
O=C(NCc1ccc(OC(F)(F)F)cc1)C1c2ccccc2C(=O)N1CC1CC(F)(F)C1 (centres undefined) | < 1 | 38 | 25 | –
CC(C)(C)OC(=O)N1CCC(N2C(=O)c3ccccc3C2C(=O)NCc2ccc(OC(F)(F)F)cc2)CC1 (centres undefined) | 7 (≈ 3.73 µg/mL) | 89 | 170 | –
O=C(NCc1ccc(OC(F)F)nc1)C1c2ccccc2C(=O)N1CCc1ccccn1 (centres undefined) | 32 (≈ 14 µg/mL) | < 10 | 33 | –
O=C(NCc1ccccc1Br)C1c2ccccc2C(=O)N1CCc1ccccn1 (centres undefined) | 280 (≈ 126 µg/mL) | 20 | 300 | –
CC1(C(=O)NCc2ccc(OC(F)(F)F)cc2)c2ccccc2C(=O)N1CCc1ccccn1 (racemic) | – | 57 | > 500 | –
O=C(NCc1ccc(OC(F)(F)F)cc1)C1c2ccccc2C(=O)N1CCCc1ccccn1 (centres undefined) | 6 (≈ 2.82 µg/mL) | 31 | > 500 | –
O=C(NCc1ccc(OC(F)(F)F)cc1)C1c2ccccc2C(=O)N1CCC(F)(F)F (centres undefined) | 11 (≈ 4.91 µg/mL) | < 10 | < 10 | –
O=C(NCc1ccc(OC(F)(F)F)cc1)C1c2c(F)cccc2C(=O)N1CCc1ccccn1 (centres undefined) | 17 (≈ 8.05 µg/mL) | 10 | 150 | –
O=C(NCc1cccc(Br)c1)C1c2ccccc2C(=O)N1CCc1ccccn1 (centres undefined) | 6 (≈ 2.7 µg/mL) | 47 | 310 | –
O=C(NCc1ccc(OC(F)(F)F)cc1)C1c2ccccc2C(=O)N1CCc1ncc(F)cn1 (centres undefined) | 25 (≈ 11.9 µg/mL) | < 10 | 53 | fraction unbound (in vitro [3]): 0.092; Tmax (in vivo [4]): 18 min; AUC (in vivo [5]): 2.1 µM·h; half-life (in vivo [6]): 24 min; Cmax (in vivo [7]): 800 nM; clearance (in vivo [9]): 37 mL/min/kg; bioavailability (in vivo [10]): 44%; half-life (in vivo [11]): 138 min; Vd (in vivo [12]): 1.1 L/kg; AUC (in vivo [13]): 1.4 µM·h
O=C(NCc1ccc(OC(F)(F)F)cc1)C1c2ccccc2C(=O)N1CCc1ncccn1 (centres undefined) | 310 (≈ 141 µg/mL) | < 10 | 33 | –
O=C(NCc1ccc(F)c(C(F)(F)F)c1)C1c2ccccc2C(=O)N1CCc1ncc(F)cn1 (centres undefined) | 14 (≈ 6.67 µg/mL) | < 10 | < 10 | IC50 (cells): 33 µM; fraction unbound (in vitro [3]): 0.13; Tmax (in vivo [4]): 18 min; AUC (in vivo [5]): 0.2 µM·h; half-life (in vivo [6]): 24 min; Cmax (in vivo [7]): 100 nM; Papp (in vitro [8]): 39 ×10⁻⁶ cm/s; clearance (in vivo [9]): 32 mL/min/kg; bioavailability (in vivo [10]): 4%; half-life (in vivo [11]): 72 min; Vd (in vivo [12]): 0.9 L/kg; AUC (in vivo [13]): 1.6 µM·h
O=C(NCc1ccc(OC(F)(F)F)cc1)C1c2ccccc2C(=O)N1CCC1CCOCC1 (centres undefined) | 20 (≈ 9.25 µg/mL) | < 10 | 71 | –
O=C(NCc1ccc(OC(F)(F)F)cc1)C1c2cccc(O)c2C(=O)N1CCc1ccccn1 (centres undefined) | 15 (≈ 7.07 µg/mL) | 10 | 59 | –
O=C(NCc1cccc(OC(F)(F)F)c1)C1c2ccccc2C(=O)N1CCc1ccccn1 (centres undefined) | 19 (≈ 8.65 µg/mL) | 86 | 370 | –

Structure (SMILES) | solubility at 4 h (physchem) [µM] | microsomal CLint (in vitro [1]) [µL/min/mg] | microsomal CLint (in vitro [2]) [µL/min/mg] | further results
COc1cccc2c1C(=O)N(CCc1ccccn1)C2C(=O)NCc1ccc(OC(F)(F)F)cc1 (centres undefined) | 6 (≈ 2.91 µg/mL) | < 10 | 50 | –
O=C(NCc1ccc(OC(F)(F)F)cc1)C1c2ccccc2C(=O)N1CCc1ccncc1 (centres undefined) | 61 (≈ 27.8 µg/mL) | 20 | 170 | –
COc1cccc2c1C(C(=O)NCc1ccc(OC(F)(F)F)cc1)N(CCc1ccccn1)C2=O (centres undefined) | 4 (≈ 1.94 µg/mL) | 37 | 97 | –
O=C(NCc1ccc(OC(F)(F)F)cc1)C1c2cccc(F)c2C(=O)N1CCc1ccccn1 (centres undefined) | 26 (≈ 12.3 µg/mL) | 16 | 170 | –
O=C(NCc1ccc(F)c(OC(F)(F)F)c1)C1c2ccccc2C(=O)N1CCc1ncc(F)cn1 (centres undefined) | 27 (≈ 13.3 µg/mL) | 110 | 220 | –
O=C(NCc1ccc(OC(F)(F)F)cc1)C1c2ccccc2C(=O)N1CCOCC(F)(F)F (centres undefined) | 3 (≈ 1.43 µg/mL) | < 10 | 44 | –
O=C(NCc1ccc(OC(F)(F)F)cc1)C1c2ccccc2C(=O)N1C[C@@H]1CCCO1 (some centres undefined) | 28 (≈ 12.2 µg/mL) | 28 | 50 | –
O=C(NCc1ccc(OC(F)(F)F)cc1)C1c2ccccc2C(=O)N1C1CCC(F)(F)CC1 (single isomer, unassigned) | – | – | – | IC50 (cells): > 10 µM
N#C[C@H]1CC[C@H](N2C(=O)c3ccccc3C2C(=O)NCc2ccc(OC(F)(F)F)cc2)CC1 (some centres undefined) | 200 (≈ 91.5 µg/mL) | 11 | < 10 | –
Cc1cccc2c1C(C(=O)NCc1ccc(OC(F)(F)F)cc1)N(CCc1ccccn1)C2=O (centres undefined) | 1 (≈ 0.469 µg/mL) | 59 | 190 | –
N#CCCN1C(=O)c2ccccc2C1C(=O)NCc1ccc(OC(F)(F)F)cc1 (centres undefined) | 45 (≈ 18.2 µg/mL) | 16 | 11 | –
O=C(NCc1ccc(OCC(F)(F)F)nc1)C1c2ccccc2C(=O)N1CCc1ccccn1 (centres undefined) | 88 (≈ 41.4 µg/mL) | < 10 | 40 | –
O=C(NCc1ccc(Br)cc1)C1c2ccccc2C(=O)N1CCc1ccccn1 (centres undefined) | 57 (≈ 25.7 µg/mL) | 31 | 120 | –
CC(C)(C)OC(=O)N1CC(N2C(=O)c3ccccc3C2C(=O)NCc2ccc(OC(F)(F)F)cc2)C1 (centres undefined) | 30 (≈ 15.2 µg/mL) | < 10 | 43 | –
O=C(NCc1ccc(OC(F)(F)F)cc1)C1c2ccccc2C(=O)N1CC(F)(F)c1ccccn1 (centres undefined) | 2 (≈ 0.983 µg/mL) | 30 | 57 | –
O=C(NCc1ccc(OC(F)(F)F)cc1)C1c2c(O)cccc2C(=O)N1CCc1ccccn1 (centres undefined) | < 1 | 23 | 26 | –
O=C(NCc1ccc(OC(F)(F)F)cc1)C1c2ccccc2C(=O)N1CCc1cccnc1 (centres undefined) | 69 (≈ 31.4 µg/mL) | 28 | 100 | –
O=C(NCc1ccc(OC(F)(F)F)cc1)C1c2cccc(O)c2C(=O)N1CCc1ncc(F)cn1 (centres undefined) | 2 (≈ 0.981 µg/mL) | 36 | 42 | –
CC(Cc1ccccn1)N1C(=O)c2ccccc2C1C(=O)NCc1ccc(OC(F)(F)F)cc1 (centres undefined) | 28 (≈ 13.1 µg/mL) | < 10 | 82 | –
CC(C)(Cc1ccccn1)N1C(=O)c2ccccc2C1C(=O)NCc1ccc(OC(F)(F)F)cc1 (centres undefined) | 13 (≈ 6.29 µg/mL) | 67 | 340 | –
O=C(NCc1ccc(OCC(F)(F)F)cc1)C1c2ccccc2C(=O)N1CCc1ccccn1 (centres undefined) | 42 (≈ 19.7 µg/mL) | – | – | –
Cc1ccc(NC(=O)C2c3ccccc3C(=O)N2CCc2ccccn2)cc1C (centres undefined) | 34 (≈ 13.1 µg/mL) | – | – | –
CC(NC(=O)C1c2ccccc2C(=O)N1CCc1ccccn1)c1ccc(OCC(F)(F)F)cc1 (centres undefined) | 34 (≈ 16.4 µg/mL) | 49 | 204 | –
O=C(NCc1ccc(CC(F)(F)F)cc1)C1c2ccccc2C(=O)N1CCc1ccccn1 (centres undefined) | 120 (≈ 54.4 µg/mL) | 42 | 190 | –
